Reference: patent publication US8759535B2, “Substituted fused imidazole derivatives, pharmaceutical compositions, and methods of use thereof” (High Point Pharmaceuticals, LLC, priority 2010, dated 2014)

Tested on: HMOX1
Test: HMOX1 Protein Assay (immunostaining of HO-1 in NHLF cells, GE InCell 1000)
Assay type: cell-based
Settings: Homo sapiens, fold change above DMSO treated cells, 3 μM compound (asterisk), 16 h
Outline: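 NHLF cells seeded overnight in FGM-2, then exposed to compound or DMSO vehicle for 16 h, fixed, and immunostained for HO-1 with Hoechst nuclear counterstain; imaged on InCell 1000. Values are fold change over DMSO-treated cells, generally at 5 μM (0.8% DMSO), with asterisked entries at 3 μM.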

In order of rising fold induction at 3 µM:
1. Cn1c(Nc2nc3ccc(Cl)cc3s2)nc2cc(C(=O)NCCCN3CCCC3)ccc21 [Example 354, 2-(6-Chloro-benzothiazol-2-ylamino)-1-methyl-1H-benzoimidazole-5-carboxylic acid (3-pyrrolidin-1-yl-propyl)-amide]  17
2. Cn1c(Nc2nc3ccc(Cl)cc3s2)nc2cc(C(=O)N[C@H]3CC[C@H](O)CC3)ccc21 [Example 225, 2-(6-Chloro-benzothiazol-2-ylamino)-1-methyl-1H-benzoimidazole-5-carboxylic acid (trans-4-hydroxy-cyclohexyl)-amide]  17.7
3. C[C@@H](O)CNC(=O)c1ccc2c(c1)nc(Nc1nc3ccc(Cl)cc3s1)n2C [Example 203, 2-(6-Chloro-benzothiazol-2-ylamino)-1-methyl-1H-benzoimidazole-5-carboxylic acid ((R)-2-hydroxy-propyl)-amide]  18.7
4. CN(C)CCCNC(=O)c1ccc2c(c1)nc(Nc1nc3ccc(C(F)(F)F)cc3s1)n2C [Example 350, 1-Methyl-2-(6-trifluoromethyl-benzothiazol-2-ylamino)-1H-benzoimidazole-5-carboxylic acid (3-dimethylamino-propyl)-amide]  24
5. Cn1c(Nc2nc3ccc(Cl)cc3s2)nc2cc(C(=O)NCC(=O)N3CCC[C@H](O)C3)ccc21 [Example 433, 2-(6-Chloro-benzothiazol-2-ylamino)-1-methyl-1H-benzoimidazole-5-carboxylic acid [2-((S)-3-hydroxy-piperidin-1-yl)-2-oxo-ethyl]-amide]  29

Same assay, conditions: Homo sapiens, fold change above DMSO treated cells, 5 μM compound, 16 h

In order of falling fold induction at 5 µM:
1. CN(C)CC(=O)NCCNC(=O)c1ccc2c(c1)nc(Nc1nc3ccc(OC(F)(F)F)cc3s1)n2C [Example 323, 1-Methyl-2-(6-trifluoromethoxy-benzothiazol-2-ylamino)-1H-benzoimidazole-5-carboxylic acid [2-(2-dimethylamino-acetylamino)-ethyl]-amide]  113
2. CN(C)[C@@H]1CCN(C(=O)CNC(=O)c2ccc3c(c2)nc(Nc2nc4ccc(Cl)cc4s2)n3C)C1 [Example 417, 2-(6-Chloro-benzothiazol-2-ylamino)-1-methyl-1H-benzoimidazole-5-carboxylic acid [2-((R)-3-dimethylamino-pyrrolidin-1-yl)-2-oxo-ethyl]-amide]  62.8
3. Cn1c(Nc2nc3ccc(OC(F)(F)F)cc3s2)nc2cc(C(=O)NCCC#N)ccc21 [Example 212, 1-Methyl-2-(6-trifluoromethoxy-benzothiazol-2-ylamino)-1H-benzoimidazole-5-carboxylic acid (2-cyano-ethyl)-amide]  48.8
4. CN(C)CC1CCN(C(=O)CNC(=O)c2ccc3c(c2)nc(Nc2nc4ccc(Cl)cc4s2)n3C)CC1 [Example 459, 2-(6-Chloro-benzothiazol-2-ylamino)-1-methyl-1H-benzoimidazole-5-carboxylic acid [2-(4-dimethylaminomethyl-piperidin-1-yl)-2-oxo-ethyl]-amide]  42
5. Cn1c(Nc2nc3ccc(OC(F)(F)F)cc3s2)nc2cc(C(=O)NCCCCO)ccc21 [Example 219, 1-Methyl-2-(6-trifluoromethoxy-benzothiazol-2-ylamino)-1H-benzoimidazole-5-carboxylic acid (4-hydroxy-butyl)-amide]  40
6. Cn1c(Nc2nc3ccc(Cl)cc3s2)nc2cc(C(=O)N[C@@H]3CCN(CCO)C3)ccc21 [Example 292, 2-(6-Chloro-benzothiazol-2-ylamino)-1-methyl-1H-benzoimidazole-5-carboxylic acid [(R)-1-(2-hydroxy-ethyl)-pyrrolidin-3-yl]-amide]  39
7. Cn1c(Nc2nc3ccc(Cl)cc3s2)nc2cc(C(=O)N3CCN(CCO)CC3)ccc21 [Example 306, [2-(6-Chloro-benzothiazol-2-ylamino)-1-methyl-1H-benzoimidazol-5-yl]-[4-(2-hydroxy-ethyl)-piperazin-1-yl]-methanone]  38.7
8. CN(CCO)C(=O)CNC(=O)c1ccc2c(c1)nc(Nc1nc3ccc(Cl)cc3s1)n2C [Example 391, 2-(6-Chloro-benzothiazol-2-ylamino)-1-methyl-1H-benzoimidazole-5-carboxylic acid {[(2-hydroxy-ethyl)-methyl-carbamoyl]-methyl}-amide]  38.6
9. Cn1c(Nc2nc3ccc(Cl)cc3s2)nc2cc(C(=O)NCC(=O)N3CCC(CO)CC3)ccc21 [Example 442, 2-(6-Chloro-benzothiazol-2-ylamino)-1-methyl-1H-benzoimidazole-5-carboxylic acid [2-(4-hydroxymethyl-piperidin-1-yl)-2-oxo-ethyl]-amide]  34.9
10. COCCNC(=O)c1ccc2c(c1)nc(Nc1nc3ccc(C)cc3s1)n2C [Example 129, 2-(6-Methyl-benzothiazol-2-ylamino)-1-methyl-1H-benzimidazole-5-carboxylic acid (2-methoxy-ethyl)-amide]  31
11. Cn1c(Nc2nc3ccc(OC(F)(F)F)cc3s2)nc2cc(C(=O)NCCOCCN)ccc21 [Example 268, 1-Methyl-2-(6-trifluoromethoxy-benzothiazol-2-ylamino)-1H-benzoimidazole-5-carboxylic acid [2-(2-amino-ethoxy)-ethyl]-amide]  28.4
12. CC(C)Cn1c(Nc2nc3ccc(OC(F)(F)F)cc3s2)nc2cc(C(=O)O)ccc21 [Example 163, 1-Isobutyl-2-(6-trifluoromethoxy-benzothiazol-2-ylamino)-1H-benzoimidazole-5-carboxylic acid]  26.3
13. Cn1c(Nc2nc3ccc(Cl)cc3s2)nc2cc(C(=O)NC3CCN(CCNS(C)(=O)=O)C3)ccc21 (stereo not shown) [Example 300, 2-(6-Chloro-benzothiazol-2-ylamino)-1-methyl-1H-benzoimidazole-5-carboxylic acid [1-(2-methanesulfonylamino-ethyl)-pyrrolidin-3-yl]-amide]  26.2
14. COCCn1c(Nc2nc3ccc(Cl)cc3s2)nc2cc(C(=O)NCC(=O)N3CC[C@@H](O)C3)ccc21 [Example 404, 2-(6-Chloro-benzothiazol-2-ylamino)-1-(2-methoxy-ethyl)-1H-benzoimidazole-5-carboxylic acid [2-((R)-3-hydroxy-pyrrolidin-1-yl)-2-oxo-ethyl]-amide]  26.1
15. Cn1c(Nc2nc3ccc(Cl)cc3s2)nc2cc(C(=O)NCC(=O)N3CCS(=O)(=O)CC3)ccc21 [Example 424, 2-(6-Chloro-benzothiazol-2-ylamino)-1-methyl-1H-benzoimidazole-5-carboxylic acid [2-(1,1-dioxo-thiomorpholin-4-yl)-2-oxo-ethyl]-amide]  24.9
16. Cn1c(Nc2nc3ccc(OC(F)(F)F)cc3s2)nc2cc(C(=O)NCCOCC(F)F)ccc21 [Example 258, 1-Methyl-2-(6-trifluoromethoxy-benzothiazol-2-ylamino)-1H-benzoimidazole-5-carboxylic acid [2-(2,2-difluoro-ethoxy)-ethyl]-amide]  24.6
17. Cn1c(Nc2nc3ccc(OC(F)(F)F)cc3s2)nc2cc(C(=O)NCCCCCO)ccc21 [Example 226, 1-Methyl-2-(6-trifluoromethoxy-benzothiazol-2-ylamino)-1H-benzoimidazole-5-carboxylic acid (5-hydroxy-pentyl)-amide]  23.3
18. CNC(=O)c1ccc2c(c1)nc(Nc1nc3ccc(F)cc3s1)n2C [Example 124, 2-(6-Fluoro-benzothiazol-2-ylamino)-1-methyl-1H-benzimidazole-5-carboxylic acid methylamide]  22.9
19. CN1CCC[C@@H](NC(=O)CNC(=O)c2ccc3c(c2)nc(Nc2nc4ccc(Cl)cc4s2)n3C)C1 [Example 388, 2-(6-Chloro-benzothiazol-2-ylamino)-1-methyl-1H-benzoimidazole-5-carboxylic acid [((R)-1-methyl-piperidin-3-ylcarbamoyl)-methyl]-amide]  22
20. Cn1c(Nc2nc3ccc(C(F)(F)F)cc3s2)nc2cc(C(=O)NCCOCCF)ccc21 [Example 257, 1-Methyl-2-(6-trifluoromethyl-benzothiazol-2-ylamino)-1H-benzoimidazole-5-carboxylic acid [2-(2-fluoro-ethoxy)-ethyl]-amide]  21.9
21. CNC(=O)CNC(=O)c1ccc2c(c1)nc(Nc1nc3ccc(OC(F)(F)F)cc3s1)n2C [Example 139, 1-Methyl-2-(6-trifluoromethoxy-benzothiazol-2-ylamino)-1H-benzimidazole-5-carboxylic acid methylcarbamoylmethyl-amide]  18.8
22. CCCNC(=O)c1ccc2c(c1)nc(Nc1nc3ccc(OC(F)(F)F)cc3s1)n2C [Example 12, 1-Methyl-2-(6-trifluoromethoxy-benzothiazol-2-ylamino)-1H-benzoimidazole-5-carboxylic acid propylamide]  16.2
23. Cn1c(Nc2nc3ccc(OC(F)(F)F)cc3s2)nc2cc(C(=O)O)cnc21 [Example 72, 3-Methyl-2-(6-trifluoromethoxy-benzothiazol-2-ylamino)-3H-imidazo[4,5-b]pyridine-6-carboxylic acid]  11.9
24. CCOCCNC(=O)c1ccc2c(c1)nc(Nc1nc3ccc(C(F)(F)F)cc3s1)n2C [Example 85, 1-Methyl-2-(6-trifluoromethyl-benzothiazol-2-ylamino)-1H-benzoimidazole-5-carboxylic acid (2-ethoxy-ethyl)-amide]  11.6
25. CCn1c(Nc2nc3ccc(C(F)(F)F)cc3s2)nc2cc(C(=O)NCCSC)ccc21 [Example 185, 1-Ethyl-2-(6-trifluoromethyl-benzothiazol-2-ylamino)-1H-benzoimidazole-5-carboxylic acid (2-methylsulfanyl-ethyl)-amide]  11.2
26. Cn1c(Nc2nc3ccc(OC(F)(F)F)cc3s2)nc2cc(C(=O)NCC3CC3)ccc21 [Example 5, 1-Methyl-2-(6-trifluoromethoxy-benzothiazol-2-ylamino)-1H-benzoimidazole-5-carboxylic acid cyclopropylmethyl-amide]  8.33
